According to ChEMBL document CHEMBL1201862, “PubChem BioAssay data set” (2004):
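96-well plates; 48 h exposure; 5 concentrations. Endpoints by linear interpolation between flanking doses. Not reached: highest tested concentration assigned. GI50: concentration for 50% inhibition of growth.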 Calls of active or inactive are those of the source. No stated cut-off is given here; in the data, active = GI50 up to about 1.1 µM and inactive = higher.

Key:
Assay in all cases: NCI anticancer screen, dose series, 48 h
[1] = tested on: NCI-H460
[2] = tested on: 786-0
[3] = tested on: IGROV-1
[4] = tested on: K562
[5] = tested on: HCT-116
[6] = tested on: MOLT-4
[7] = tested on: CCRF-CEM
[8] = tested on: SK-MEL-5
[9] = tested on: HT-29
[10] = tested on: NCI/ADR-RES
[11] = tested on: NCI-H226
[12] = tested on: TK-10
[13] = tested on: Malme-3M
[14] = tested on: T47D
[15] = tested on: MDA-MB-231
[16] = tested on: SK-MEL-28
[17] = tested on: U-251
[18] = tested on: A498
[19] = tested on: MDA-MB-435

| Structure (SMILES) | GI50 [1] | GI50 [2] | GI50 [3] | GI50 [4] | GI50 [5] | GI50 [6] | GI50 [7] | GI50 [8] | GI50 [9] | GI50 [10] | GI50 [11] | GI50 [12] | GI50 [13] | GI50 [14] | GI50 [15] | GI50 [16] | GI50 [17] | GI50 [18] | GI50 [19] |
| --- | --- | --- | --- | --- | --- | --- | --- | --- | --- | --- | --- | --- | --- | --- | --- | --- | --- | --- | --- |
| O=S(=O)([N-]c1nc2ccccc2nc1-[n+]1ccccc1)c1ccccc1 | > 100 µM (inactive) | > 100 µM (inactive) | > 100 µM (inactive) | 29.9 µM (inactive) | > 100 µM (inactive) | 23.1 µM (inactive) | 10.8 µM (inactive) | > 100 µM (inactive) | > 100 µM (inactive) | > 100 µM (inactive) | > 100 µM (inactive) | 71.4 µM (inactive) | > 100 µM (inactive) | 81.8 µM (inactive) | 28.9 µM (inactive) |  |  |  |  |
| CCOC(=O)C(NC(=O)NCc1ccc(F)cc1)C(F)(F)F (configuration not stated) |  | > 100 µM (inactive) | > 100 µM (inactive) | > 100 µM (inactive) | > 100 µM (inactive) | > 10 µM (inactive) | > 100 µM (inactive) | > 100 µM (inactive) | > 100 µM (inactive) | > 100 µM (inactive) |  | > 100 µM (inactive) |  | > 100 µM (inactive) |  | > 100 µM (inactive) | > 100 µM (inactive) | > 100 µM (inactive) | > 100 µM (inactive) |
| NC(=O)CN1CCN(c2nc(N3CCCC3)c3nc(Cl)c(NCc4ccccc4)nc3n2)CC1 | 9.12 µM (inactive) | 8.89 µM (inactive) | 12.2 µM (inactive) | 9.86 µM (inactive) | 8 µM (inactive) | 7.26 µM (inactive) | 13.8 µM (inactive) | 8.45 µM (inactive) | 9.48 µM (inactive) | 14 µM (inactive) | 11.8 µM (inactive) | 14.2 µM (inactive) | 8.65 µM (inactive) | 7.89 µM (inactive) | 10.8 µM (inactive) | 9.46 µM (inactive) | 8.59 µM (inactive) |  | 10 µM (inactive) |
| COc1ccc(/N=N/C(=N/NC(=O)c2cc(Cl)ccc2C(=O)c2ccccc2)c2ccc(N(CCC#N)CCC#N)cc2C)cc1 | 11.5 µM (inactive) | 18.5 µM (inactive) | 6.49 µM (inactive) | 12.9 µM (inactive) | 13.1 µM (inactive) | 9.08 µM (inactive) | 4.54 µM (inactive) | 15.5 µM (inactive) | 21.5 µM (inactive) | 16.7 µM (inactive) | 16.2 µM (inactive) | 18.2 µM (inactive) | 26.2 µM (inactive) | 15 µM (inactive) | 15.1 µM (inactive) | 25.8 µM (inactive) | 16.4 µM (inactive) |  | 27.6 µM (inactive) |
| O/N=C1/CCCCCC1NO (configuration not stated) | > 100 µM (inactive) | > 100 µM (inactive) | > 100 µM (inactive) |  | > 100 µM (inactive) | > 100 µM (inactive) |  | > 100 µM (inactive) | > 100 µM (inactive) | > 100 µM (inactive) | > 100 µM (inactive) | > 100 µM (inactive) | > 100 µM (inactive) | > 100 µM (inactive) | > 100 µM (inactive) | > 100 µM (inactive) | > 100 µM (inactive) |  | > 100 µM (inactive) |
| CC[C@H]1C=CCC[C@@]2(C[C@@H]3CC[C@@H]4[C@H](C(=O)OCCCCCCCCCCCCCCCC(=O)N(CCCN)CCCCN)[C@]5(CCC[C@@H](C)O5)NC(=[N+]34)N2)O1 | 0.0301 µM (active) | 0.0229 µM (active) | 0.0695 µM (active) | 0.0299 µM (active) | 0.0275 µM (active) | 0.0155 µM (active) | 0.0151 µM (active) | < 0.01 µM (active) | 0.0364 µM (active) | 0.0944 µM (active) | 0.314 µM (active) | 1.23 µM (inactive) | 0.04 µM (active) |  | 0.275 µM (active) | 0.233 µM (active) | 0.0561 µM (active) | 1.56 µM (inactive) | < 0.01 µM (active) |
| COc1ccc(C2S/C(=C\c3ccccc3O)C(=O)N2NC(=O)Cc2ccccc2)cc1 (configuration not stated) | > 100 µM (inactive) | > 100 µM (inactive) | > 100 µM (inactive) | 68.5 µM (inactive) | 38.2 µM (inactive) | 39.5 µM (inactive) | 48.5 µM (inactive) | > 100 µM (inactive) | > 100 µM (inactive) |  | > 100 µM (inactive) | > 100 µM (inactive) | > 100 µM (inactive) |  |  | 40.3 µM (inactive) | > 100 µM (inactive) | > 100 µM (inactive) |  |
| Nc1nc(Cl)cc(OCC2(CO)CCCCC2)n1 | > 100 µM (inactive) | > 100 µM (inactive) | > 100 µM (inactive) | > 10 µM (inactive) | > 100 µM (inactive) | > 100 µM (inactive) | > 100 µM (inactive) | 40.9 µM (inactive) | > 100 µM (inactive) | > 100 µM (inactive) | > 100 µM (inactive) | > 100 µM (inactive) | > 100 µM (inactive) |  |  | > 100 µM (inactive) | 86.5 µM (inactive) | 40.7 µM (inactive) | > 100 µM (inactive) |
